The subject of assay [1] is nerf sciatique. The experiment in a line: Speed of sensory reinnervation after freezing lesion of the sciatic nerve (latency of somesthetic evoked potential). Format: in vivo, rat whistar mâle. The following applies: 150 mg/kg, another batch of rats (Fig. 2). The procedure: La vitesse de réinnervation sensitive après lésion du nerf sciatique et dégénérescence wallerienne a été étudiée chez le rat whistar mâle de 210 g ± 10 g. Le nerf sciatique droit a été lésé par congélation au moyen d'une cryode à cataracte portée à -170°C pendant 30 secondes en 3 points d'une même circonférence, située au tiers supérieur de la cuisse, à 90 ± 5 mm de la pénétration du nerf dans la région plantaire. Le nerf fémoris interne était excisé sur plusieurs cm. La récupération sensitive a été appréciée en mesurant la latence du potentiel évoqué somesthésique recueilli au niveau de l'aire primaire contralatérale et homolatérale, au moyen d'électrodes métalliques extra-durémériennes scéllées et laissées à demeure. La réponse était évoquée en stimulant le coussinet le plus interne de la sole plantaire droite au moyen d'un choc électrique de 5 mA délivré à courant constant pendant 2 ms toutes les 620 ms. Les réponses étaient moyennées de 500 à 2.000 fois et leurs latences mesurées avec une précision de ± 0,5 ms.
La latence de la réponse positive (P1) la plus précoce et à seuil le plus bas, a été mesurée et comparée chez trois groupes d'animaux aux jours J +25, +29, +33, +38, +43. Le groupe de témoins (n=11) a reçu par gavage 6 jours sur 7, 0,5 g/kg de gomme arabique. […]

Assay [2] concerns nerf sciatique. The experiment in a line: Regeneration of the sciatic nerve after exposure to cold (plantar pain perception, Randal et Sellito apparatus). Format: in vivo, rats Charles RIVER. The note with it: 500 mg/kg P.U/jour. The procedure: L'étude est menée sur des lots de rats Charles RIVER (100-110 g), anesthésiés au Mébubarbital (30 mg/kg I.P).
Le nerf sciatique droit est isolé et on en pratique la congélation sur une longueur de 3 mm, au niveau du tiers supérieur de la cuisse. Cette congélation est réalisée par applications successives, pendant 30 secondes chacune, de petites masses métalliques adaptées sur un champ d'artère et plongées, préalablement, dans l'azote liquide.
Le traitement par les produits à étudier est pratique à partir du premier jour après l'opération (J₁), jusqu'à J₁₂.
La regénération nerveuse éventuelle est recherchée par la mesure de la perception douloureuse au niveau plantaire des deux pattes postérieures des animaux, en utilisant l'appareil de Randal et Sellito qui permet l'évaluation de la sensibilité locale par application d'un poids progressivement augmenté en fonction du temps.
Les résultats sont exprimés à partir des mesures réalisées sur chaque patte, 4 heures après le dernier traitement. La valeur de la regénération de la sensibilité, donc de la regénération nerveuse, est représentée par la différence de réponse au test de la patte au nerf lésé par rapport à la patte contralatérale intacte.
L'analyse statistique est faite sur les deux séries de valeurs par analyse de Kruskall-Wallis et test U de Mann-Whitney. […]

Regarding `CC(C)Nc1ncccn1` [isaxonine], the “modification dans la regénération des fibres nerveuses” value with nerf sciatique [1] is “aucune modification sensible”.

As for `CN(C)CCOC(=O)COc1ccc(Cl)cc1` [Méclofénoxate], the “réactivité (perception douloureuse au niveau plantaire, patte lésée vs patte contralatérale)” value with nerf sciatique [2] (sixth day after operation, oral, in water) was “tendance à une meilleure réactivité”. Also, the “amélioration de la réactivité (regénération de la sensibilité)” value in the assay with nerf sciatique [2] (twelfth day after operation, 4 h after last treatment, oral (plate no. 3)) is on record as “l'amélioration est significative”.

The values above are taken from patent EP0555938A1, “Use of phenoxyacetate derivatives for the restoration of neural function” (Albert ROLLAND S.A., priority 1992, dated 1993).
